From paper PMC5503536, “Development of [^11C]vemurafenib employing a carbon-11 carbonylative Stille coupling and preliminary evaluation in mice bearing melanoma tumor xenografts” (Oncotarget, 2017)

Assays:
[1] = system: Colo829 (BRAF^V600E) cells; assay: Cell titer blue cell viability assay, Colo829; assay type: cell-based; conditions: Homo sapiens, COLO-829
Procedure: (§1) Having a reliable synthesis route to obtain [^11C]vemurafenib, cell lines had to be selected to evaluate the tumor targeting potential of [^11C]vemurafenib. Two melanoma cell lines were selected based on reported mutational status of BRAF: Colo829 (BRAF^V600E) and MeWo (BRAF^wt). Both cell lines were analyzed by Fluorescence Activated Cell Sorting (FACS) using a BRAF antibody (recognizing both wild-type and BRAF^V600E) and a BRAF^V600E selective antibody for assessment of target expression (Figure 2A/2B). […] Furthermore, both the cells as well as the xenografts derived from the cell lines were sequenced to confirm the expression of BRAF and the mutational status thereof. […] (V600E) and MeWo cells and xenografts were wild-type. […] So while the BRAF^V600E kinase is sensitive to vemurafenib treatment, it appears that a certain level of mutated protein expression is required for this sensitivity, as both cell lines expressed the mutation to an extent, as determined by FACS. In contrast sequencing only detected the V600E mutation in the Colo829, indicative of higher expression. […]
(§2) Vemurafenib stock solutions of 1 mM in DMSO were prepared and diluted with PBS to a concentration of 10 μM (1% DMSO). […] Finally the fluorescence was measured using a TriStar^2 LB942 plate reader (Berthold Technologies, Bad Wildbad, Germany). […]

MeWo (BRAF^wt) cells = assay: Cell titer blue cell viability assay, MeWo; assay type: cell-based; conditions: 120 h incubation, CellTiter-Blue
Procedure: as §1, §2

[2] = design: method as in PMID 23060265; conditions: phase I trial with 32 patients; cited from earlier work
[3] = design: method as in PMID 23060265; conditions: phase III, vs patients treated with dacarbazine; cited from earlier work
BRAF^V600E cells = system: BRAF^V600E cells; design: method as in PMID 20149136; conditions: cited from earlier work
BRAF^wt cells = system: BRAF^wt cells; design: method as in PMID 20149136; conditions: cited from earlier work
P-gp = conditions: cited from earlier work
BCRP = conditions: cited from earlier work
[4] = system: Colo829 xenograft tumor sections; assay: Autoradiography on Colo829 xenograft sections; assay type: binding; conditions: co-incubation with unmodified vemurafenib 100 μM, tracer only = 100%
Procedure: (§3) To determine the binding potential of [^11C]vemurafenib to tumor tissue expressing BRAF^wt or BRAF^V600E, autoradiography studies on xenograft sections and in vitro cellular uptake studies were performed. Sections of tumor xenografts derived from the aforementioned cell lines were incubated with [^11C]vemurafenib.
(§4) Colo829 and MeWo xenograft sections (10 μm thickness) were pre-treated three times with 5 mM Tris-HCl buffer (pH 7.4) for 5 min.. Sections were dried under a gentle air flow before incubation for 30 min. with [^11C]vemurafenib and the following conditions: (A) 5 mM Tris-HCl, pH 7.4; (B) 5 mM Tris-HCl, pH 7.4 and isotopically unmodified vemurafenib at 100 μM (n = 4 for each incubation condition). Washing was performed using Tris-HCl (3×) followed by dipping in ice cold water. After drying in an air stream, tumor sections were exposed to a phosphor-imaging screen for 15 min. Data was quantified as average signal intensity per surface area and were represented relative to the tracer only (A) conditions, which was set at 100%. Error bars indicate standard deviations. Quantification of binding was performed using ImageQuantTL v8.1.0.0 (GE Healthcare, Buckinghamshire, UK) by drawing regions of interest around the full tumor sections.

[5] = system: MeWo xenograft tumor sections; assay: Autoradiography on MeWo xenograft sections; assay type: binding; conditions: co-incubation with unmodified vemurafenib 100 μM, tracer only = 100%
Procedure: as §3, §4

Colo829 cells = assay: In vitro cell uptake, Colo829; assay type: cell-based
Procedure: (§5) To determine binding of [^11C]vemurafenib in vitro to intact tumor cells a cell uptake study was performed by incubation of tumor cells in suspension with [^11C]vemurafenib, followed by removal of the supernatant and washing of the cells with PBS (phosphate buffered saline). […] While in vitro experiments can be of great value to predict tracer target binding, the experiments exclude many of the factors observed in vivo, for PET-tracer validation. Therefore in vivo experiments are of the utmost importance for PET-tracer validation. […]
(§6) Colo829 or MeWo cells (1*10^6) suspended in growth medium were incubated in triplicate in centrifuge tubes at 37°C with 1 MBq of [^11C]vemurafenib (corresponding to 0.02 nmol of vemurafenib) for 30 min. […] All fractions (cells, supernatant and PBS) were counted for radioactivity using a gamma counter (Wallac 1210 Compugamma, PerkinElmer, Waltham, MA, USA) and the cell bound/internalized percentage of [^11C]vemurafenib was determined as the fraction of activity in the cell pellet divided by the total activity (cells, supernatant and PBS) corrected for background (medium only) and vehicle treated conditions.

MeWo cells = assay: In vitro cell uptake, MeWo; assay type: cell-based
Procedure: as §5, §6

[6] = Plasma metabolite analysis (in vivo stability); design: species or system athymic nu/nu mice; conditions: for Parent (%): plasma, i.v., non-tumor bearing mice
Procedure: The cartridge was washed with 5 mL of H2O to collect polar radioactive metabolites.

[7] = system: Colo829 (BRAF^V600E) xenografts; assay: Ex vivo biodistribution, Colo829 xenograft bearing mice; assay type: in vivo, athymic nu/nu mice; conditions: 60 min p.i.
Procedure: (§7) To evaluate the in vivo tumor targeting potential an ex vivo biodistribution study was performed in mice bearing the aforementioned melanoma xenografts. Tumor bearing mice were injected with 20–25 MBq of [^11C]vemurafenib (corresponding to 0.36–0.45 nmol of vemurafenib) and sacrificed 60 minutes post injection. Subsequently organs of interest were excised and counted for activity.
(§8) Nude mice (Athymic nu/nu, Harlan, Horst, The Netherlands) bearing two tumors (obtained by injection of MeWo or Colo829 cells, 2*10^6 per site) of the same xenograft line on their left and right flank, received an injection of 25 MBq [^11C]vemurafenib (corresponding to 0.45 nmol of vemurafenib) via the ocular plexus. The mice were sacrificed and dissected at 60 min. post-injection. Blood, urine, skin, left tumor, right tumor, muscle, heart, colon, lung, liver, kidney and brain were collected, weighed and counted for radioactivity in a gamma counter (Wallac 1210 Compugamma, PerkinElmer, Waltham, MA, USA). Biodistribution data are expressed as percentage of injected dose per gram (%ID/g) of tissue for each organ.

[8] = system: MeWo (BRAF^wt) xenografts; assay: Ex vivo biodistribution, MeWo xenograft bearing mice; assay type: in vivo, athymic nu/nu mice; conditions: 60 min p.i.
Procedure: as §7, §8

[9] = Ex vivo biodistribution, statements made for both xenograft lines; assay type: in vivo, athymic nu/nu mice
Procedure: as §7, §8

SMILES: CCCS(=O)(=O)Nc1ccc(F)c(C(=O)c2c[nH]c3ncc(-c4ccc(Cl)cc4)cc23)c1F [vemurafenib, Vemurafenib]
- IC50 ([1]; Colo829 (BRAF^V600E), 120 h incubation, CellTiter-Blue): 130 nM
- EC50 ([1]; printed in the picture beside the fitted curve, apparently Colo829, read-out: EC50, cell viability curve (Figure 2C)): 130 nM
- IC50, cell viability (MeWo (BRAF^wt) cells): no IC50 was observed
- unconfirmed overall response rate [2]: 81%
- reduction in the risk of death [3]: 63%
- effect on ERK1/2 phosphorylation (BRAF^V600E cells): abolished ERK1/2 phosphorylation
- effect on ERK1/2 and MEK phosphorylation (BRAF^wt cells): rapid phosphorylation of ERK1/2 and MEK
- substrate for ABC-cassette efflux transporter P-gp (P-gp): substrate
- substrate for ABC-cassette efflux transporter BCRP (BCRP): substrate

SMILES: CCCS(=O)(=O)Nc1ccc(F)c([11C](=O)c2c[nH]c3ncc(-c4ccc(Cl)cc4)cc23)c1F [[^11C]vemurafenib]
- binding when compared to unblocked conditions [4]: 51.2 ± 11.2%
- binding when compared to unblocked conditions [5]: 65.1 ± 3.1%
- cell bound + internalized fraction (Colo829 cells; 30 min, 37°C, unblocked): 74.3 ± 1.5%
- cell bound + internalized fraction after pretreatment with unmodified vemurafenib (Colo829 cells; blocked): 17.0 ± 2.3%
- cell bound + internalized fraction (MeWo cells; 30 min, 37°C, unblocked): 61.6 ± 8.2%
- cell bound + internalized fraction after pretreatment with unmodified vemurafenib (MeWo cells; blocked): 20.6 ± 0.4%
- intact tracer in plasma (stability) ([6]; 45 minutes after injection): > 95%
- Parent (%) ([6]; 15 min p.i.): 97.8 ± 1.9%
- Parent (%) ([6]; 45 min p.i.): 95.9 ± 4.4%
- Tumor-to-blood ratio ([7]; Colo829 (BRAF^V600E)): 0.27 ± 0.06
- Tumor-to-muscle ratio ([7]; Colo829 (BRAF^V600E)): 0.78 ± 0.18
- Tumor-to-skin ratio ([7]; Colo829 (BRAF^V600E)): 0.90 ± 0.19
- Tumor uptake ([7]; Colo829 tumors, 20–25 MBq): 0.87 ± 0.14 ID/g
- Tumor-to-blood ratio ([8]; MeWo (BRAF^WT)): 0.29 ± 0.19
- Tumor-to-muscle ratio ([8]; MeWo (BRAF^WT)): 0.72 ± 0.21
- Tumor-to-skin ratio ([8]; MeWo (BRAF^WT)): 0.89 ± 0.28
- Tumor uptake ([8]; MeWo tumors, 20–25 MBq): 0.49 ± 0.29 %ID/g
- blood levels ([9]; after 60 minutes, xenograft bearing mice): 2–3 %ID/g
- tumor-to-tissue ratios (muscle, blood, skin), all cases ([9]; both xenograft lines, 60 min p.i.): ≤ 1
